Consider 16 compounds from US9365539B2, “Prolylcarboxypeptidase inhibitors” (Merck Sharp & Dohme Corp., priority 2010, dated 2016).

human PrCP, sequence (P42785 46-496): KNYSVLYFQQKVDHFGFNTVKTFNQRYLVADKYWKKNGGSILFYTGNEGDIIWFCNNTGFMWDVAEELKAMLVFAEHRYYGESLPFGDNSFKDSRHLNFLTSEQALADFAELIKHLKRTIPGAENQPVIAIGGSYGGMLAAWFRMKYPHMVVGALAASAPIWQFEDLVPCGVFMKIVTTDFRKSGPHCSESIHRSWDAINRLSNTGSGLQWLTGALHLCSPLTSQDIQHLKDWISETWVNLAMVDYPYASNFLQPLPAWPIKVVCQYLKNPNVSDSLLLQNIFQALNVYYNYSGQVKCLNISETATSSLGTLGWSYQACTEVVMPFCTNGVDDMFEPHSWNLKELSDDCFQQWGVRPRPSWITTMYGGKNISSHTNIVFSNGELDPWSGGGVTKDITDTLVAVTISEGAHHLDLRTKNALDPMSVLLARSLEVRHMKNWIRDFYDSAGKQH

Tested on in the first assay: not given
Experiment: not given
The note with it: limited weight loss of about; cited from earlier work.
As for `CC(C)(N)Cc1ccccc1` [phentermine], the “weight loss, of body weight, drug compared to placebo” value (shortened to “weight loss … compared to placebo”) is reported as 5%-10%.
For `CCN[C@@H](C)Cc1cccc(C(F)(F)F)c1` [dexfenfluramine], the “weight loss … compared to placebo” value is 5%-10%.
In the case of `CCCCCCCCCCC[C@@H](C[C@@H]1OC(=O)[C@H]1CCCCCC)OC(=O)[C@H](CC(C)C)NC=O` [orlistat], the “weight loss … compared to placebo” value is given as 5%-10%.
With `CC(C)CC(N(C)C)C1(c2ccc(Cl)cc2)CCC1` (centres unmarked) [sibutramine], the “weight loss … compared to placebo” value is recorded as 5%-10%.

For another assay, the target named is human PrCP (Homo sapiens (Human), UniProt P42785). The assay is described as follows: Prolylcarboxypeptidase (PRCP) enzyme activity assay, fluorescence intensity kinetic assay. The format is biochemical. The note with it: recombinant human PrCP (CHO), 15 uM substrate, pH 5.5, 37° C. As for the experimental part:
The potency of compounds of formula I against PrCP was determined by a fluorescence intensity kinetic assay measuring the IC50 values of PrCP inhibitor test compounds. […] The assay was run on a Perkin Elmer Envision 2103 plate reader using a 320 nm excitation filter and a 405 emission filter. The assay was performed using a Hamilton Star liquid handling workstation. The assay employed the internally quenched fluorescent substrate (1S)-1-carboxy-5-[(2,4-dinitrophenyl)amino]pentyl N-[(7-methoxy-2-oxo-2H-chromen-4-yl)acetyl]-L-alanyl-L-prolinate prepared in house.
The assay was run in a 384-well microliter plate at 37° C. with a total volume of 50 uL. Final assay concentrations were 0.13 nM human PrCP (CHO) or 0.09 nM mouse PrCP (CHO) enzyme, 15 uM substrate and varying concentrations of inhibitor in buffer containing 10 mM NaOAc, 100 mM NaCl and 19.5 ug/mL BSA at pH 5.5. The assay also contained 2% DMSO used to solubilize the substrate and inhibitor. Inhibitors were prepared in 100% DMSO and serial diluted (in 100% DMSO) to generate 11 point titration curves. Either 39 uL of human or mouse PrCP enzyme was added to the wells of the assay plate, followed by a 1 uL addition of the serially diluted inhibitor and mixed three times using a 30 uL mix volume. The reaction was initiated by the addition of 10 uL substrate and mixed three times using a 30 μL mix volume. The reactions were monitored continuously over 25 min at 37° C. to obtain initial velocities. IC50 values were calculated by comparing the resulting rates of reaction of the inhibited and control initial velocities.
The enzymes were diluted in a mixture of 10 mM NaOAc (pH 5.5)/100 mM NaCl buffer containing 25 ug/mL bovine serum albumin that had been warmed to 37° C. in a water bath. The PrCP inhibitor test compounds were plated in 100% DMSO with a highest concentration of 500 uM. There were 12 dilution points for each compound tested including a blank with DMSO only. The test compounds from the source titration plate were transferred into the assay reaction plate at a 1:50 dilution using the Hamilton Star workstation and mixed, resulting in a final concentration for the test compounds in the range of 10,000 to 0.066 nM. Likewise, two control compounds were similarly titrated and included in each assay, with final starting concentrations starting at 10,000 nM and 200 nM, respectively. The reaction was initiated by the addition of 75 uM of the (1S)-1-carboxy-5-[(2,4-dinitrophenyl)amino]pentyl N-[(7-methoxy-2-oxo-2H-chromen-4-yl)acetyl]-L-alanyl-L-prolinate substrate, which was diluted in a mixture of 10 mM NaOAc (pH 5.5)/100 mM NaCl that had been warmed to 37° C. in a water bath, dispensed using the Hamilton Star workstation and mixed. The substrate was solubilized in 100% DMSO prior to dilution into the assay. The final assay concentrations in the 50 uL reactions were 15 uM of (1S)-1-carboxy-5-[(2,4-dinitrophenyl)amino]pentyl N-[(7-methoxy-2-oxo-2H-chromen-4-yl)acetyl]-L-alanyl-L-prolinate substrate, 0.13 nM Human PrCP (CHO) or 0.09 nM Mouse PrCP (CHO), and 2% DMSO.
The resulting rates of reaction were used to determine the IC50 value for each PrCP inhibitor compound tested.
As usually defined, the IC50 is the midpoint of a concentration-inhibition curve. Take `CO[C@@H](CN1CCC(c2nc(-c3ccc(F)cc3)nn2-c2ncccn2)CC1)c1ccccc1` [Example 81, 2-[3-(4-fluorophenyl)-5-{1-[(2 R)-2-methoxy-2-phenylethyl]piperidin-4-yl}-1 H-1,2,4-triazol-1-yl]pyrimidine]: the IC50 turned out to be 2.58 nM.
The same measure, in the same setting: as for `O=S(=O)(c1ccc(N2CCC(c3cc(-c4ccc(Cl)cc4)nn3-c3ncccn3)CC2)nc1)N1CCOCC1` [Example 48, 4-[(6-{4-[3-(4-chlorophenyl)-1-(pyrimidin-2-yl)-1 H-pyrazol-5-yl]piperidin-1-yl}pyridin-3-yl)sulfonyl]morpholine], the figure is 80.2 nM.
As for `Fc1ccc(-c2nc(C3C4CN(CCc5ccccc5)CC43)n(-c3ncccn3)n2)cc1` (centres unmarked) [Example 82, 6-[3-(4-Fluorophenyl)-1-(pyrimidin-2-yl)-1H-1,2,4-triazol-5-yl]-3-(2-phenylethyl)-3-azabicyclo[3.1.0]hexane], the IC50 turned out to be 28.6 nM.
Same read-out and setting: as for `O=C(Cc1ccccc1C(F)(F)F)N1CCC(c2cc(-c3ccc(F)cc3)nn2-c2ncccn2)CC1` [Example 68, 1-{4-[3-(4-fluorophenyl)-1-(pyrimidin-2-yl)-1 H-pyrazol-5-yl]piperidin-1-yl}-2-[2-(trifluoromethyl)phenyl]ethanone], the figure is 1.28 nM; as for `O=C(O)C(CN1CCC(c2cc(-c3ccc(F)cc3)nn2-c2ncccn2)CC1)c1ccccc1` (centres unmarked) [Example 34, 3-{4-[3-(4-fluorophenyl)-1-(pyrimidin-2-yl)-1 H-pyrazol-5-yl]piperidin-1-yl}-2-phenylpropanoic acid], 0.51 nM; as for `OC(CN1CCC(c2cc(-c3ccc(Cl)cc3)nn2-c2ncccn2)CC1)c1ccccc1` (centres unmarked) [Example 36, 2-{4-[3-(4-Chlorophenyl)-1-(pyrimidin-2-yl)-1H-pyrazol-5-yl]piperidin-1-yl}-1-phenylethanol], 0.31 nM.
Consider `COC(=O)C(CN1CCC(c2cc(-c3ccc(F)cc3)nn2-c2ncccn2)CC1)c1ccccc1` (centres unmarked) [Example 33, Methyl 3-{4-[3-(4-fluorophenyl)-1-(pyrimidin-2-yl)-1 H-pyrazol-5-yl]piperidin-1-pyrazol-5-yl]piperidin-1], for which the half-inhibitory concentration (IC50) was found to be 0.035 nM.
The same measure, in the same setting: the result for `Clc1ccc(-c2cc(C3CCN(CCc4ccccc4)CC3)n(-c3ncccn3)n2)cc1` [Example 1, 2-{3-(4-Chlorophenyl)-5-[1-(2-phenylethyl)piperidin-4-yl]-1H-pyrazol-1-yl}pyrimidine] reads 0.051 nM.
Still for that read-out and setting: as for `Clc1ccc(-c2cc(C3CCN(CCc4ccccc4)CC3)nn2-c2ccncn2)cc1` [Example 13, 4-{5-(4-chlorophenyl)-3-[1-(2-phenylethyl)piperidin-4-yl]-1 Hyl}pyrimidine], the figure is 38.4 nM; as for `CCn1nc(-c2ccc(Cl)cc2)cc1C1CCN(CCc2ccccc2)CC1` [Example 26, 4-[3-(4-chlorophenyl)-1-ethyl-1 H-pyrazol-5-yl]-1-(2-phenylethyl)piperidine], 31.8 nM; as for `CS(=O)(=O)N1CCC(N2CCC(c3cc(-c4ccc(Cl)cc4)nn3-c3ccccc3)CC2)C1` (centres unmarked) [Example 60, 4-[3-(4-chlorophenyl)-1-phenyl-1 H-pyrazol-5-yl]-1-[1-(methylsulfonyl)pyrrolidin-3-yl]piperidine], 21.1 nM.

Tested on in another assay: not given
Experiment: not given
The note with it: systemic administration to obese, leptin deficient mice; cited from earlier work.
As to t-butyl carbamate-prolyl prolinal [BPP], the overnight food intake entry is recorded as “suppression of overnight food intake”.

Tested on in the next assay: not given
Experiment: not given
The note with it: intracerebroventricular to rats; cited from earlier work.
For the compound t-butyl carbamate-prolyl prolinal [BPP], the overnight food intake result is recorded as “suppression of overnight food intake”.
